Calls of active or inactive are those of the source.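 Rule for the calls: active = at least one rat sex group has a carcinogenic potency value and tumor site recorded; inconclusive = only rat studies were judged inadequate by the national testing program; inactive = no potency or tumor site, with negative rat experiments.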
Tested on: rat chronic carcinogenicity bioassay, TD50
Experiment: DSSTox (CPDBAS) Carcinogenic Potency Database Summary Rat Bioassay Results
Conditions: for Potency: active compounds read low; for outcome: TD50_Rat_Note: no positive results
Outline: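 The activity score maps log10(1/TD50_Rat_mmol) linearly onto 1–100; actives without a computed TD50, such as mixtures, receive 50. Source data are chronic rat carcinogenicity tests, using the most positive experiment for each sex.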

[1] = TargetSites_Rat_Female: no positive results
[2] = TD50_Rat_Note: TD50 is harmonic mean of more than one positive test, TargetSites_Rat_Female: liver

CN(C)N=O
Potency (TD50_Rat_Note: TD50 is harmonic mean of more than one positive test, greater than ten-fold variation among TD50 values for positive res, TargetSites_Rat_Female: liver, vascular system): 0.0959 mg/kg/day

O=C/C=C/c1ccccc1
outcome [1]: inactive; no positive results

CC(CN1CC(=O)NC(=O)C1)N1CC(=O)NC(=O)C1 (stereo not given)
Potency (TD50_Rat_Note: positive test results only by intraperitoneal or intravenous injection, TargetSites_Rat_Female: uterus): 10.7 mg/kg/day

Cc1cccc(C)c1N
outcome: inactive; no positive results

CN(CCCC(O)c1cccnc1)N=O (stereo not given)
Potency: 0.103 mg/kg/day

O=NN1CCCCC1C(=O)O (stereo not given)
outcome [1]: inactive; no positive results

CCCCN(CCCC)N=O
Potency: 0.691 mg/kg/day

O=c1ccc2ccccc2o1
Potency (TD50_Rat_Note: TD50 is harmonic mean of more than one positive test, greater than ten-fold variation among TD50 values for positive res, TargetSites_Rat_Female: liver): 39.2 mg/kg/day

CCCCCCN(N=O)C(N)=O
Potency (TD50_Rat_Note: TD50 is harmonic mean of more than one positive test, harmonic mean of TD50 includes a value for upper 99% confidence li, TargetSites_Rat_Female: lung, mammary gland, stomach, uterus): 0.513 mg/kg/day

COc1cc(OC)c2c3c(c(=O)oc2c1)CCC3=O
outcome: inactive; no positive results

CC(C)=CCl
Potency (TD50_Rat_Note: TD50 is harmonic mean of more than one positive test, TargetSites_Rat_Female: esophagus, nasal cavity, oral cavity, stomach): 31.8 mg/kg/day

CN1C(C(=O)Nc2ccccn2)=C(O)c2sc(Cl)cc2S1(=O)=O
outcome [1]: inactive; no positive results

FCCl
Potency (TD50_Rat_Note: TD50 is harmonic mean of more than one positive test, TargetSites_Rat_Female: stomach): 27.5 mg/kg/day

Cc1ccc2c(c1)C(N1CCN(C)CC1)=Nc1ccccc1S2
outcome [1]: inactive; no positive results

CC[C@H](OC(C)=O)C(C[C@H](C)N(C)C)(c1ccccc1)c1ccccc1
Potency [2]: 68 mg/kg/day

CN(C)CCC(c1ccc(Cl)cc1)c1ccccn1 (stereo not given)
outcome [1]: inactive; no positive results

Cc1cc(C)nc(-c2ccc([N+](=O)[O-])o2)n1
Potency (TD50_Rat_Note: harmonic mean of TD50 includes a value for upper 99% confidence limit from study with 100% tumor incidence but no lifeta, TargetSites_Rat_Female: kidney, mammary gland, small intestine, stomach, vascular system): 1.39 mg/kg/day

CCC(O)OC(O)CC (stereo not given)
outcome [1]: inactive; no positive results

Cc1c(N)nc(C)c2c1[nH]c1ccccc12
Potency [2]: 0.575 mg/kg/day

CC(O)CNC(=O)N(N=O)C(C)Cl (stereo not given)
Potency [1]: 0.124 mg/kg/day

CCC(Br)(CC)C(=O)NC(N)=O
outcome [1]: inactive; no positive results

C1COCCO1
Potency (TD50_Rat_Note: TD50 is harmonic mean of more than one positive test, greater than ten-fold variation among TD50 values for positive res, TargetSites_Rat_Female: liver, mammary gland, nasal cavity): 267 mg/kg/day

O=C(O)c1[nH]n(-c2ccc(S(=O)(=O)O)cc2)c(=O)c1N=Nc1ccc(S(=O)(=O)O)cc1
outcome [1]: inactive; no positive results

CC1(C)C(=O)NC(=O)NC1=O
outcome: inactive; no positive results

CC(CN1c2ccccc2Sc2ccccc21)N(C)C (stereo not given)
outcome [1]: inactive; no positive results

O=CNc1nc(-c2ccc([N+](=O)[O-])o2)cs1
Potency (TD50_Rat_Note: TD50 is harmonic mean of more than one positive test, harmonic mean of TD50 includes a value for upper 99% confidence li, TargetSites_Rat_Female: urinary bladder): 4.25 mg/kg/day

Oc1ccc(Cl)cc1Cl
outcome [1]: inactive; no positive results

O=[N+]([O-])c1ccc2ccc3cccc4ccc1c2c34
Potency (TargetSites_Rat_Female: clitoral gland, hematopoietic system, mammary gland): 3.33 mg/kg/day

C[C@](N)(Cc1ccc(O)c(O)c1)C(=O)O
outcome [1]: inactive; no positive results

Nc1nc(N)nc(-c2ccc([N+](=O)[O-])o2)n1
Potency (TargetSites_Rat_Female: mammary gland): 1.71 mg/kg/day

O
outcome [1]: inactive; no positive results

Cc1cccc(C)c1
Potency (TD50_Rat_Note: TD50 is harmonic mean of more than one positive test, TargetSites_Rat_Female: oral cavity, Maltoni head cancers): 3110 mg/kg/day
outcome [1]: inactive; no positive results

NC(=O)CCCCC(N)=O
outcome [1]: inactive; no positive results

O=c1oc2c(O)c(O)cc3c(=O)oc4c(O)c(O)cc1c4c23
outcome [1]: inactive

Cc1cc(N=Nc2c(O)ccc3ccccc23)c(S(=O)(=O)O)cc1Cl
Potency [1]: 146 mg/kg/day

CCCCNC(=O)N(CCCC)N=O
Potency (TargetSites_Rat_Female: hematopoietic system, mammary gland): 4.28 mg/kg/day

O=C1C2(Cl)C3(Cl)C4(Cl)C(Cl)(Cl)C5(Cl)C3(Cl)C1(Cl)C5(Cl)C24Cl (stereo not given)
Potency (TargetSites_Rat_Female: liver): 2.96 mg/kg/day

CCN(C)N=O
Potency [1]: 0.0503 mg/kg/day

O=S(=O)(c1ccc(Cl)cc1)c1ccc(Cl)cc1
outcome [1]: inactive; no positive results

CC(O)CN(C)N=O (stereo not given)
Potency (TD50_Rat_Note: TD50 is harmonic mean of more than one positive test, TargetSites_Rat_Female: esophagus, nasal cavity): 0.0463 mg/kg/day

CCN(CC)C(C)=O
Potency (TD50_Rat_Note: no positive results are statistically significant): 8.85 mg/kg/day

Nc1nc(N)nc(-c2ccccc2)n1
outcome: inactive; no positive results

OC[P+](CO)(CO)CO
outcome [1]: inactive; no positive results

CN(C)C=O
outcome [1]: inactive; no positive results

Reference: PubChem BioAssay AID1208 (EPA DSSTox, 2008)
